Source: patent publication US20200017496A1 (priority 2017, published 2020)

Columns and labels:
Experiment in all cases: MIC of compounds alone and combined with antibacterials, broth microdilution (CLSI)
Format in all cases: cell-based
[1] = test system: Morganella morganii (MMO) isolates; conditions: AF1 @ 4 μg/mL
In short: (§1)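 First, log-phase suspensions are brought to a final 5·10^5 CFU/mL in cation-adjusted Mueller-Hinton broth. Then plates with compound, antibacterial, or both incubate 16-20 h at 35° C under ambient air. Finally, visual inspection gives the lowest growth-preventing concentration for each agent.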

[2] = test system: Enterobacter cloacae (ECL) isolates
In short: as §1

[3] = test system: Escherichia coli (ECO) isolates; conditions: AF1 @ 4 μg/mL
In short: as §1

[4] = test system: Citrobacter koseri (CKR) isolates; conditions: AF1 @ 4 μg/mL
In short: as §1

[5] = test system: Providencia stuartii (PST) isolates; conditions: AF1 @ 4 μg/mL
In short: as §1

Structure (SMILES): COCC1=C(C(=O)O)N2C(=O)[C@@H](NC(=O)/C(=N\OC)c3csc(N)n3)[C@H]2SC1 [POD, Cefpodoxime]
- MIC ATB in combination ([1]; MMO 200321): 2 µg/mL
- MIC ATB in combination ([1]; MMO UFR144): 2 µg/mL
- MIC ATB in combination ([1]; MMO UFR240): <=0.25 μg/mL
- MIC ATB in combination ([1]; MMO UFR241): 2 µg/mL
- MIC ATB in combination ([1]; MMO UFR242): 4 µg/mL
- MIC ATB in combination ([1]; MMO UFR243): 4 µg/mL
- MIC ATB in combination ([1]; MMO UFR244): <=0.25 μg/mL
- MIC ATB in combination ([1]; MMO UFR245): 2 µg/mL
- MIC ATB in combination ([1]; MMO UFR246): 4 µg/mL
- MIC ATB in combination ([1]; MMO UFR247): 1 µg/mL
- MIC ATB in combination ([2]; ECL 2185D, AF1 @ 4 μg/mL): >128 µg/mL
- MIC ATB in combination ([2]; ECL 190310, AF1 @ 4 μg/mL): 64 µg/mL
- MIC ATB in combination ([2]; ECL 190408, AF1 @ 4 μg/mL): <=0.25 μg/mL
- MIC ATB in combination ([2]; ECL 200138, AF1 @ 4 μg/mL): 32 µg/mL
- MIC ATB in combination ([2]; ECL 200322, AF1 @ 4 μg/mL): 1 µg/mL
- MIC ATB in combination ([2]; ECL 260033, AF1 @ 4 μg/mL): 128 µg/mL
- MIC ATB in combination ([2]; ECL 260253, AF1 @ 4 μg/mL): 8 µg/mL
- MIC ATB in combination ([2]; ECL 260323, AF1 @ 4 μg/mL): 32 µg/mL
- MIC ATB in combination ([2]; ECL 260508, AF1 @ 4 μg/mL): 1 µg/mL
- MIC ATB in combination ([2]; ECL NEM146383, AF1 @ 4 μg/mL): 16 µg/mL
- MIC ATB in combination ([2]; ECL P99, AF1 @ 4 μg/mL): 16 µg/mL
- MIC ATB in combination ([2]; ECL UFR12, AF1 @ 4 μg/mL): 1 µg/mL
- MIC ATB in combination ([2]; ECL UFR13, AF1 @ 4 μg/mL): 8 µg/mL
- MIC ATB in combination ([2]; ECL UFR14, AF1 @ 4 μg/mL): 8 µg/mL
- MIC ATB in combination ([2]; ECL UFR60, AF1 @ 4 μg/mL): 1 µg/mL
- MIC ATB in combination ([2]; ECL UFR70, AF1 @ 4 μg/mL): 8 µg/mL
- MIC ATB in combination ([2]; ECL UFR84, AF1 @ 4 μg/mL): 32 µg/mL
- MIC ATB in combination ([2]; ECL UFR85, AF1 @ 4 μg/mL): 4 µg/mL
- MIC ATB in combination ([2]; ECL UFR194, AF1 @ 4 μg/mL): 1 µg/mL
- MIC ATB in combination ([2]; ECL UFR200, AF1 @ 4 μg/mL): 1 µg/mL
- MIC ATB in combination ([2]; strain ECL UFR195, antibacterial combined with AF1 @ 4 μg/mL): 1 µg/mL
- MIC ATB in combination ([2]; strain ECL UFR196, antibacterial combined with AF1 @ 4 μg/mL): 2 µg/mL
- MIC ATB in combination ([2]; strain ECL UFR197, antibacterial combined with AF1 @ 4 μg/mL): 8 µg/mL
- MIC ATB in combination ([2]; strain ECL UFR198, antibacterial combined with AF1 @ 4 μg/mL): 8 µg/mL
- MIC ATB in combination ([3]; ECO 4133): <=0.25 μg/mL
- MIC ATB in combination ([3]; ECO 5302): <=0.25 μg/mL
- MIC ATB in combination ([3]; ECO 131119): <=0.25 μg/mL
- MIC ATB in combination ([3]; ECO 180070): <=0.25 μg/mL
- MIC ATB in combination ([3]; ECO 190314): <=0.25 μg/mL
- MIC ATB in combination ([3]; ECO 190317): <=0.25 μg/mL
- MIC ATB in combination ([3]; ECO 190457): <=0.25 μg/mL
- MIC ATB in combination ([3]; ECO 190549): <=0.25 μg/mL
- MIC ATB in combination ([3]; ECO 200159): <=0.25 μg/mL
- MIC ATB in combination ([3]; ECO 200259): <=0.25 μg/mL
- MIC ATB in combination ([3]; ECO 200344): <=0.25 μg/mL
- MIC ATB in combination ([3]; ECO 260096): <=0.25 μg/mL
- MIC ATB in combination ([3]; ECO 260304): <=0.25 μg/mL
- MIC ATB in combination ([3]; ECO 260508): <=0.25 μg/mL
- MIC ATB in combination ([3]; ECO RGN238): <=0.25 μg/mL
- MIC ATB in combination ([3]; ECO UFR15): <=0.25 μg/mL
- MIC ATB in combination ([3]; ECO UFR16): 1 µg/mL
- MIC ATB in combination ([3]; ECO UFR17): >128 µg/mL
- MIC ATB in combination ([3]; ECO UFR18): 8 µg/mL
- MIC ATB in combination ([3]; ECO UFR19): 4 µg/mL
- MIC ATB in combination ([3]; ECO UFR20): 4 µg/mL
- MIC ATB in combination ([3]; ECO UFR61O): 0.5 µg/mL
- MIC ATB in combination ([3]; ECO UFR62): 0.5 µg/mL
- MIC ATB in combination ([3]; ECO UFR74): 2 µg/mL
- MIC ATB in combination ([3]; ECO UFR86): 1 µg/mL
- MIC ATB in combination ([3]; ECO UFR174): <=0.25 μg/mL
- MIC ATB in combination ([3]; ECO UFR175): 1 µg/mL
- MIC ATB in combination ([3]; ECO UFR176): <=0.25 μg/mL
- MIC ATB in combination ([3]; ECO UFR184): 4 µg/mL
- MIC ATB in combination ([3]; ECO UFR185): 32 µg/mL
- MIC ATB in combination ([3]; ECO UFR186): 1 µg/mL
- MIC ATB in combination ([3]; ECO UFR187): 0.5 µg/mL
- MIC ATB in combination ([3]; ECO UFR189): <=0.25 μg/mL
- MIC ATB in combination ([3]; ECO UFR190): <=0.25 μg/mL
- MIC ATB in combination ([3]; ECO UFR191): <=0.25 μg/mL
- MIC ATB in combination ([3]; ECO UFR207): <=0.25 μg/mL
- MIC ATB in combination ([3]; ECO UFR208): 64 µg/mL
- MIC ATB in combination ([3]; ECO UFR209): <=0.25 μg/mL
- MIC ATB in combination ([3]; ECO UFR210): <=0.25 μg/mL
- MIC ATB in combination ([3]; ECO UFR211): <=0.25 μg/mL
- MIC ATB in combination ([3]; ECO UFR212): 32 µg/mL
- MIC ATB in combination ([3]; ECO UFR218): <=0.25 μg/mL
- MIC ATB in combination ([4]; CKO ROU): 2 µg/mL
- MIC ATB in combination ([4]; CKO UFR149): 8 µg/mL
- MIC ATB in combination ([4]; CKO UFR150): 8 µg/mL
- MIC ATB in combination ([5]; PST UFR94): 0.5 µg/mL
- MIC ATB in combination ([5]; PST UFR95): 2 µg/mL
- MIC ATB in combination ([5]; PST UFR235): 2 µg/mL
